Data: ChEMBL document CHEMBL4483862, “Open-source discovery of chemical leads for next-generation chemoprotective antimalarials” (2018)

Test system: Plasmodium berghei
Experiment: Luciferase/luciferin-expressing antifolate-resistant parasites were used to infect a culture of HepG2 cells that were pre-incubated with compounds. Infected hepatocytes emit light due to the luciferase reaction. Assay results are presented as the percent inhibition of light emission compared to control. […]
Type: functional
Conditions: sporozoite; for IC90: read-out: LUCIFERASE INFECTION ASSAY - IC90
[1] = read-out: LUCIFERASE INFECTION ASSAY - IC50

Compound | IC50 [1] [µM] | IC90 [µM] | other results
NS(=O)(=O)c1ccc2c(c1)CCN2Cc1ccc(Cl)cc1 | > 2 | > 2 | 
CN(C(=O)Cn1nnc(-c2cccc(C(F)(F)F)c2)n1)C1(C#N)CCCCC1 | > 10 | > 10 | 
Cc1cnc(C)c(Nc2nc(C(N)Cc3ccc(C(F)(F)F)cc3)cs2)n1 (stereo not drawn) | > 8.39 | > 8.39 | 
Fc1ccc(-c2nc3ccnc(Nc4ccccc4)c3[nH]2)cc1F |  | > 10 | IC50 (PBLUC_HILL_SLOPE 2.79, PBLUC_R_SQUARED 0.219, read-out: LUCIFERASE INFECTION ASSAY - IC50): 5.41 µM
Cc1cc(C)cc(NC(=O)CNCCCn2ccc3ccccc32)c1 | > 10 | > 10 | 
CC(=O)Nc1cccc(-c2ccc3c(-c4ccccc4Oc4ccccc4)[nH]nc3n2)c1 |  | > 7.85 | IC50 (HEPG2TOX_HILL_SLOPE 12.7, HEPG2TOX_R_SQUARED 0.516, PBLUC_HILL_SLOPE 10.9, PBLUC_R_SQUARED 0.441, read-out: LUCIFERASE INFECTION ASSAY - IC50): 6.81 µM
Cc1ccc(Nc2cc(-c3ccc(CC(C)C)cc3)ncn2)cc1NS(C)(=O)=O |  | > 8.04 | IC50 (PBLUC_HILL_SLOPE 12.9, PBLUC_R_SQUARED 0.53, read-out: LUCIFERASE INFECTION ASSAY - IC50): 7.03 µM
CCCCNC(=O)COc1ccc2[nH]c3ccccc3c(=O)c2c1 |  | 8.21 | IC50 (PBLUC_HILL_SLOPE 1.51, PBLUC_R_SQUARED 0.724, read-out: LUCIFERASE INFECTION ASSAY - IC50): 1.92 µM
O=C1C=CC(=O)N1c1ccc2c(c1)OCCO2 | > 14.3 | > 14.3 | 
O=C(NC1CC1)c1ccc(-c2cn3c(-c4ccc5ncccc5c4)cnc3cn2)cc1 |  | > 8.14 | IC50 (HEPG2TOX_HILL_SLOPE 8.34, HEPG2TOX_R_SQUARED 0.193, PBLUC_HILL_SLOPE 5.05, PBLUC_R_SQUARED 0.479, read-out: LUCIFERASE INFECTION ASSAY - IC50): 7.19 µM
N#Cc1ccc(-c2cnc3cnc(-c4cccc(Cl)c4)cn23)cc1 |  | > 9.98 | IC50 (PBLUC_HILL_SLOPE 4, PBLUC_R_SQUARED 0.258, read-out: LUCIFERASE INFECTION ASSAY - IC50): 8.15 µM
Cc1ccccc1C(=O)/C=c1\s/c(=C\c2ccc(O)cc2)c(=O)n1C | > 10 | > 10 | 
Cn1c(C(=O)N2CCN(C(c3ccccc3)c3ccccc3)CC2)cc2c(=O)n3ccccc3nc21 | > 10 | > 10 | 
O=C(c1ccco1)N1CCN(c2nc(-c3ccsc3)nc3ccccc23)CC1 |  | > 10 | IC50 (PBLUC_HILL_SLOPE 3.55, PBLUC_R_SQUARED 0.0384, read-out: LUCIFERASE INFECTION ASSAY - IC50): 7.3 µM
CC(C)(C)c1ccc(-c2cnc3cnc(-c4ccc(C(=O)N5CCOCC5)cc4)cn23)cc1 |  | > 7.49 | IC50 (PBLUC_HILL_SLOPE 4.5, PBLUC_R_SQUARED 0.623, read-out: LUCIFERASE INFECTION ASSAY - IC50): 4.7 µM
O=C(Nc1cccc(F)c1)N1CCC2(CC1)OCc1cc(-c3ccco3)ccc1O2 | > 8.08 | > 8.08 | 
COC(=O)c1sccc1Oc1ccc(C(F)(F)F)cc1NC(=S)Nc1cc(Cl)cc(Cl)c1 | > 6.33 | > 6.33 | 
CCN1C/C(=C/c2cc(Cl)c(OC(C)C)c(OC)c2)C(=O)/C(=C/c2cc(Cl)c(OC(C)C)c(OC)c2)C1 |  | 3.46 | IC50 (HEPG2TOX_HILL_SLOPE 9.62, 4.07, HEPG2TOX_R_SQUARED 0.967, 0.574, PBLUC_HILL_SLOPE 16.5, 9.41, PBLUC_R_SQUARED 0.287, 0.470, read-out: LUCIFERASE INFECTION ASSAY - IC50): 2.85 µM
O=C(/C=C/c1ccccc1)N1CCN(S(=O)(=O)c2ccccc2C(F)(F)F)CC1 |  | 6.57 | IC50 (HEPG2TOX_HILL_SLOPE 0.114, HEPG2TOX_R_SQUARED 0.819, PBLUC_HILL_SLOPE 7.50, 16.5, PBLUC_R_SQUARED 0.237, 0.462, read-out: LUCIFERASE INFECTION ASSAY - IC50): 5.45 µM
COCCn1c(C)cc(C(=O)CSc2nnc(C)s2)c1C |  | > 10.1 | IC50 (FFLUC_HILL_SLOPE 1.54, FFLUC_R_SQUARED 0.663, PBLUC_HILL_SLOPE 0.577, PBLUC_R_SQUARED 0.574, read-out: LUCIFERASE INFECTION ASSAY - IC50): 0.418 µM
Cc1cc(OCc2nc3ccc(Cl)cc3[nH]2)c(C(C)C)cc1Cl | > 10 | > 10 | 
CC(=O)CSc1nnc(-c2ccc(C(C)(C)C)cc2)n1-c1ccc(Cl)cc1 |  | > 8.25 | IC50 (PBLUC_HILL_SLOPE 12.6, PBLUC_R_SQUARED 0.0257, read-out: LUCIFERASE INFECTION ASSAY - IC50): 7.82 µM

Compound | IC50 [1] [µM] | IC90 [µM] | other results
CC1CCc2sc(C(=O)OCC(=O)NCCN3C(=O)CSC3=S)cc2C1 (stereo not drawn) | > 10 | > 10 | 
O=C(Nc1ccc(OC(F)(F)F)cc1)Nc1ccccc1Sc1ncc([N+](=O)[O-])cc1C(F)(F)F |  | > 6.37 | IC50 (FFLUC_HILL_SLOPE 90.5, FFLUC_R_SQUARED 0.394, read-out: LUCIFERASE INFECTION ASSAY - IC50): > 6.37 µM
CNc1nc2cnc(Nc3cccc(Oc4ccccc4)c3)cc2n1-c1ccccc1 |  | > 10 | IC50 (HEPG2TOX_HILL_SLOPE 5.82, HEPG2TOX_R_SQUARED 0.501, PBLUC_HILL_SLOPE 8.19, PBLUC_R_SQUARED 0.453, read-out: LUCIFERASE INFECTION ASSAY - IC50): 8.37 µM
NC(=O)C1Cc2ccccc2CN1S(=O)(=O)c1cccc2c1N=S=N2 (stereo not drawn) | > 10 | > 10 | 
CN1CCN(c2ccc(-c3cn4c(-c5ccc6c(ccn6C)c5)cnc4cn3)cn2)CC1 |  | > 7.79 | IC50 (HEPG2TOX_HILL_SLOPE 8.77, HEPG2TOX_R_SQUARED 0.447, PBLUC_HILL_SLOPE 3.78, PBLUC_R_SQUARED 0.492, read-out: LUCIFERASE INFECTION ASSAY - IC50): 4.51 µM
Fc1ccc(C(Nc2ncnc3ccsc23)c2cccs2)cc1 (stereo not drawn) |  | 6.3 | IC50 (HEPG2TOX_HILL_SLOPE 16.1, HEPG2TOX_R_SQUARED 0.824, PBLUC_HILL_SLOPE 385, PBLUC_R_SQUARED 0.0246, read-out: LUCIFERASE INFECTION ASSAY - IC50): 6.26 µM
CNc1nc2cnc(Nc3ccccc3Cl)cc2n1CC1CC1 | > 10 | > 10 | 
Cc1nnc(-c2cccc(NC(=O)c3ccc4c(c3)CCO4)c2)[nH]1 | > 10 | > 10 | 
CC(C)CN(C(=O)c1ccc(N2CCCC2)c([N+](=O)[O-])c1)c1nc2ccccc2s1 |  | 0.595 | IC50 (FFLUC_HILL_SLOPE 0.859, FFLUC_R_SQUARED 0.184, HEPG2TOX_HILL_SLOPE 0.259, HEPG2TOX_R_SQUARED 0.321, PBLUC_HILL_SLOPE 3.83, PBLUC_R_SQUARED 0.838, read-out: LUCIFERASE INFECTION ASSAY - IC50): 0.336 µM
Cc1nc(C(=O)NNC(=O)c2ccc(C(C)(C)C)cc2)cs1 |  | 6.76 | IC50 (HEPG2TOX_HILL_SLOPE 1.77, HEPG2TOX_R_SQUARED 0.966, PBLUC_HILL_SLOPE 4.32, PBLUC_R_SQUARED 0.361, read-out: LUCIFERASE INFECTION ASSAY - IC50): 4.06 µM
O=C1C(c2ccccc2)=C(Nc2cc(C(F)(F)F)cc(C(F)(F)F)c2)c2ccccc21 |  | 0.879 | IC50 (FFLUC_HILL_SLOPE 4.26, FFLUC_R_SQUARED 0.731, HEPG2TOX_HILL_SLOPE 18.3, HEPG2TOX_R_SQUARED 0.933, PBLUC_HILL_SLOPE 2.24, PBLUC_R_SQUARED 0.855, read-out: LUCIFERASE INFECTION ASSAY - IC50): 0.329 µM
Cc1nn2c(NCCCn3ccnc3)cc(C(C)(C)C)nc2c1-c1ccccc1 |  | 3.07 | IC50 (FFLUC_HILL_SLOPE 16.6, FFLUC_R_SQUARED 0.48, HEPG2TOX_HILL_SLOPE 8.1, HEPG2TOX_R_SQUARED 0.76, PBLUC_HILL_SLOPE 15.5, PBLUC_R_SQUARED 0.267, read-out: LUCIFERASE INFECTION ASSAY - IC50): 2.66 µM
COC(=O)c1ccc(C(=O)OC)c(N(C)S(C)(=O)=O)c1 | > 11 | > 11 | 
Cc1c(/C=N/N)c2ccccn2c1C#N | > 10 | > 10 | 
Clc1ccc2[nH]c(-c3cccs3)c(-c3ccccc3)c2c1 | 5.01 | > 10.7 | 
COc1ccnc(N2CCN(C(c3ccccc3)c3ccccc3)CC2)c1C#N |  | > 8.58 | IC50 (PBLUC_HILL_SLOPE 3.87, PBLUC_R_SQUARED 0.686, read-out: LUCIFERASE INFECTION ASSAY - IC50): 5.89 µM
Cc1ccnc(-n2c(C)c(C)c3c2ncn2nc(Cc4ccccc4)nc32)c1 | > 8.96 | > 8.96 | 
COc1c(C)cc(C(O)c2nc(-c3cccc4ccccc34)c[nH]2)cc1C (stereo not drawn) |  | > 9.21 | IC50 (FFLUC_HILL_SLOPE 13.5, FFLUC_R_SQUARED 0.422, HEPG2TOX_HILL_SLOPE 8.48, HEPG2TOX_R_SQUARED 0.286, read-out: LUCIFERASE INFECTION ASSAY - IC50): > 9.21 µM
CCOC(=O)c1c(-c2csc(Nc3ccccn3)n2)c(C)n(CC)c1C |  | > 10 | IC50 (PBLUC_HILL_SLOPE 7.74, 2.96, PBLUC_R_SQUARED 0.584, 0.552, read-out: LUCIFERASE INFECTION ASSAY - IC50): 9.4 µM
O=C(Nc1nonc1-c1ccc(F)cc1)c1ccc(Br)cc1 |  | 3.92 | IC50 (HEPG2TOX_HILL_SLOPE 9.79, HEPG2TOX_R_SQUARED 0.939, PBLUC_HILL_SLOPE 11.2, PBLUC_R_SQUARED 0.415, read-out: LUCIFERASE INFECTION ASSAY - IC50): 3.22 µM
O=C(NC1CCCCC1)N1CCc2nc(NCc3cccc(Oc4ccccc4)c3)ncc2C1 |  | > 7.21 | IC50 (HEPG2TOX_HILL_SLOPE 12.4, HEPG2TOX_R_SQUARED 0.711, PBLUC_HILL_SLOPE 13.6, PBLUC_R_SQUARED 0.535, read-out: LUCIFERASE INFECTION ASSAY - IC50): 6.74 µM
CCOC(=O)c1sc(S(=O)(=O)Cc2ccccc2)c2c1CC(C)(C)CC2=O | > 8.12 | > 8.12 | 
